Results as given in article PMC3726394, “Selecting β-glucosidases to support cellulases in cellulose saccharification” (Biotechnology for Biofuels, 2013).

Key:
Type in all cases: biochemical, Acremonium thermophilum
AtBG3 [1] = test system: T1, AtBG3; experiment: glucose release, hexokinase/G6PDH assay; fit with transglycosylation; settings: 25 °C, pH 5.0, 50 mM sodium acetate; hydrolysis constant, substrate inhibition by transglycosylation; read-out: KM(h)(mM)^a / AtBG3
T1 construct: secreted enzyme, heterologously expressed in Trichoderma reesei lacking four major cellulases; gel filtration; 101 kDa

AtBG3 [2] = target: T1, AtBG3; experiment: inhibition of MUG hydrolysis, fluorescence; settings: 25 °C, pH 5.0, 2.5 μM MUG; IC50 at [S] << KM taken as Ki; competitive inhibition assumed; read-out: AtBG3^b
Source text: inhibition of MUG hydrolysis, fluorescence on AtBG3

AtBG3 [3] = test system: T1, AtBG3; experiment: pNP release, absorbance […] nm; fit with transglycosylation; settings: 25 °C, pH 5.0, 50 mM sodium acetate; hydrolysis constant, substrate inhibition by transglycosylation; read-out: KM(h)

OC[C@H]1O[C@@H](O[C@H]2[C@H](O)[C@@H](O)C(O)O[C@@H]2CO)[C@H](O)[C@@H](O)[C@@H]1O (stereo partly drawn) [cellobiose]
Km (AtBG3 [1]): 0.29 ± 0.07 mM

OC[C@H]1OC(O)[C@H](O)[C@@H](O)[C@@H]1O (stereo partly drawn) [glucose]
Ki (AtBG3 [2]): 220 µM

O=[N+]([O-])c1ccc(O[C@@H]2O[C@H](CO)[C@@H](O)[C@H](O)[C@H]2O)cc1 [para-nitrophenyl-β-glucoside]
Km (AtBG3 [3]): 95 ± 3 µM
